Consider one compound from publication PMC7997574, “Lead Optimization of Benzoxazolone Carboxamides as Orally Bioavailable and CNS Penetrant Acid Ceramidase Inhibitors” (Journal of Medicinal Chemistry, 2020).

By pIC50 is commonly meant the IC50 on a negative log10 scale, so that one unit is a factor of ten.

Data set [1] is described as follows: In vitro plasma stability study. The format is in vitro ADME. Particulars: mouse plasma; read-out: m-plasma t1/2. A digest of the protocol:
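Compound at 2 μM final incubated in mouse plasma at 37 °C for up to 120 min, sampled at 0–120 min and quenched in cold MeCN with internal standard. Remaining compound quantified by LC/MS/MS; t1/2 fitted from response vs time; mean of ≥2 experiments.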

In data set [2] the target is T1, human N-acylethanolamine acid amidase (hNAAA) (Homo sapiens, UniProt Q02083).
T1 construct: expressed in transfected cells
T1 sequence (Q02083 29-359): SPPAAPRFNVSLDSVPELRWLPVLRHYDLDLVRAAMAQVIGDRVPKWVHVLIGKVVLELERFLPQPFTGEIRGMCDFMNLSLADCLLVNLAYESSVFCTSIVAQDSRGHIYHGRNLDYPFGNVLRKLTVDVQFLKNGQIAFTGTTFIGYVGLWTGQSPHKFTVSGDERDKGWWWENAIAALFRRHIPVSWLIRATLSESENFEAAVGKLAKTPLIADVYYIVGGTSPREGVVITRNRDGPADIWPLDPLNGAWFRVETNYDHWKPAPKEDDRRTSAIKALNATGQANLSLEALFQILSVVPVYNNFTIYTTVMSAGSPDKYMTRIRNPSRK
The data set is described as follows: Fluorogenic hNAAA assay. Format: biochemical. As for the experimental part:
HEK-293 cells stably transfected with the hNAAA coding sequence cloned from a human spleen cDNA library (catalog no. 639124, Clontech, Mountain View, CA, USA) were used as the enzyme source. Cells were grown in Dulbecco’s modified Eagle medium (DMEM) containing 10% FBS, 1% glutamine, 1 mM sodium pyruvate, and 500 μg mL^–1 G418. Cells were harvested, and pellets were stored at −80 °C until lysosomal-enriched lysate preparation. Cells were suspended in 20 mM Tris HCl (pH 7.4) with 0.32 M sucrose, sonicated, and centrifuged at 800 × g for 30 min at 4 °C. Supernatants were then ultracentrifuged at 12000 × g for 30 min at 4 °C. […] The suspension was finally ultracentrifuged at 105000 × g for 1 h at 4 °C, supernatants were collected, protein concentration was measured, and samples were aliquoted and stored at −80 °C until use.
The assay was run in 96-well microplates (Black OptiPlate-96F; PerkinElmer, Massachusetts, USA) in a total reaction volume of 200 μL. hNAAA protein preparation (4.0 μg) was preincubated for 30 min with various concentrations of test compounds or vehicle control (DMSO 5%) in 100 mM citrate/phosphate buffer (pH 4.5) containing 3.0 mM DTT, 0.1% NP40 0.1%, 0.05% BSA, 150 mM NaCl. […] Fluorescence was measured with an EnVision 2014 Multilabel Reader (PerkinElmer, Massachusetts, USA) using an excitation wavelength of 355 nm and emission of 460 nm. […]

Another data set deals with SH-SY5Y cells. The data set is described as follows: Sphingolipid levels in SH-SY5Y cells by LC/MS. The format is cell-based, human. The procedure: SH-SY5Y cells were purchased from Sigma Aldrich (Italy) and cultured in Dulbecco’s modified Eagle’s medium (DMEM) containing 10% fetal bovine serum at 37 °C and 5% CO2. Drugs were dissolved in DMSO (10 mM) and diluted in the cell culture medium with reduced serum (1%) for cell treatments.
Lipid extraction and sphingolipid measurements were performed as previously described.[36],[37] Lipids were extracted with a CHCl3/MeOH mixture (2:1, 3 mL) containing internal standards. The organic phase was collected, dried under nitrogen, and dissolved in CHCl3/MeOH (1:3) for LC/MS analyses. Ceramides and sphingosine were analyzed by LC/MS/MS, using a Waters ACQUITY UPLC coupled to a Waters Xevo TQMS and interfaced with an ESI ion source. Separation was performed on a Waters ACQUITY BEH C18 1.7 μm column (2.1 × 50 mm) at 60 °C. A linear gradient of 0.1% formic acid in MeCN/isopropyl alcohol (20:80) as solvent B in 0.1% formic acid in MeCN/H2O (20:80) as solvent A was applied at a flow rate of 0.4 mL min^–1. Detection of sphingolipids was performed in positive-ion mode. Capillary voltage was 3.5 kV, and cone voltage was 25 V. The source temperature and desolvation temperatures were set at 120 and 600 °C, respectively. Desolvation gas and cone gas (N2) flows were 800 and 20 L h^–1, respectively. Ceramides were identified by comparison of their LC retention times and MS/MS fragmentation patterns with those of authentic standards (Avanti Polar Lipids). Multiple Reaction Monitoring (MRM) ion chromatograms were used to quantify myristoyl ceramide (C14:0, m/z: 492.5 > 264.3), palmitoyl ceramide (C16:0, m/z 520.3 > 264.3), stearoyl ceramide (C18:0, m/z: 548.3 > 264.3), lignoceroyl ceramide (C24:0, m/z: 632.3 > 264.3), and nervonoyl ceramide (C24:1 m/z: 630.3 > 264.3) using lauroyl ceramide standard (m/z: 464.5 > 264.3). Detection and analysis were controlled by Waters MassLynx software version 4.1. Sphingosine was identified by comparison of its LC retention times and MS2 fragmentation patterns with those of authentic standards (Avanti Polar Lipids). Extracted ion chromatograms were used to quantify sphingosine standard (d18:1, m/z: 300.5 > 282.5). Detection and analysis were controlled by Waters MassLynx software version 4.1. Calibration curves were prepared for every experiment.

pIC50: −log10 of the molar value.

Regarding `CC(C)CNC(=O)n1c(=O)oc2cc(C3CCN(C)CC3)ccc21` [22m, N-Isobutyl-6-(1-methyl-4-piperidyl)-2-oxo-1,3-benzoxazole-3-carboxamide], in data set [1], the half-life at 2 µM was found to be 1.33 h and the half-life at 2 μM was above 1 h. Also, in data set [2], the pIC50 was 5.10. Besides, in the data set with SH-SY5Y cells, the “hexosylceramide (HexCer) (d18:1/16:0) levels” value was “no major variations” and the “sphingomyelin (SM) (d18:1/16:0) levels” value is listed as “no major variations”. In addition, in the data set with SH-SY5Y cells (3 h of incubation), the “ceramide levels, Cer (d18:0/16:0) and Cer (d18:1/16:0)” value is recorded as “intracellular accumulation of various ceramide species”; the sphingosine levels entry is “decrease in the levels of sphingosine”.
